This is an account of results in patent publication US8278452B2, “Heterocyclic compounds and compositions as c-kit and PDGFR kinase inhibitors” (IRM LLC, priority 2008, dated 2012).

SMILES strings stand for the structures.

In the assay the test system is Mo7e cells which endogenously express c-kit. The experiment in a line: Mo7e assay: inhibition of SCF dependent proliferation (MTT). To be noted: Table 1; SCF stimulated Mo7e cells, 48 hours, MTT. The assay is classed as cell-based. As for the experimental part:
The compounds described herein are tested for inhibition of SCF dependent proliferation using Mo7e cells which endogenously express c-kit in a 96 well format. Two-fold serially diluted test compounds (Cmax=10 μM) are evaluated for their antiproliferative activity of Mo7e cells stimulated with human recombinant SCF. After 48 hours of incubation at 37° C., cell viability is measured by using a MTT colorimetric assay from Promega. IC50 values for compounds of the invention are quoted in table 1, supra.
Turning to `Cc1cc2c(cn1)cc(-c1cc(Nc3noc(C4CCCC4)n3)ccc1C)c(=O)n2C` [Compound A15, 3-{5-[(5-cyclopentyl-1,2,4-oxadiazol-3-yl)amino]-2-methylphenyl}-1,7-dimethyl-1,2-dihydro-1,6-naphthyridin-2-one], the half-inhibitory concentration (IC50) (in general, the point on the concentration scale where inhibition reaches its midpoint) turned out to be 28 nM.

In turn, `Cc1cc2c(cn1)cc(-c1cc(Nc3cc(-c4ccccn4)on3)ccc1C)c(=O)n2C` [Compound D3] came in with an IC50 of 158 nM.

The compound `Cc1cc2c(cn1)cc(-c1cc(Nc3nsc(-c4ccccc4)n3)ccc1C)c(=O)n2C` [Compound G1, 1,7-dimethyl-3-(2-methyl-5-(5-phenyl-1,2,4-thiadiazol-3-ylamino)phenyl)-1,6-naphthyridin-2(1H)-one] displayed an IC50 of 733 nM.

In turn, `Cc1cccc(-c2nc(Nc3ccc(C)c(-c4cc5cnc(C)cc5n(C)c4=O)c3)no2)c1` [Compound A17, 1,7-dimethyl-3-(2-methyl-5-{[5-(3-methylphenyl)-1,2,4-oxadiazol-3-yl]amino}phenyl)-1,2-dihydro-1,6-naphthyridin-2-one] gave an IC50 of 241 nM.

On to `Cc1cc2c(cn1)cc(-c1cc(Nc3noc(C(C)CO)n3)ccc1C)c(=O)n2C` (stereo not drawn) [Compound A67, 3-(5-(5-(1-hydroxypropan-2-yl)-1,2,4-oxadiazol-3-ylamino)-2-methylphenyl)-1,7-dimethyl-1,6-naphthyridin-2(1H)-one], for which the concentration for half-maximal inhibition (IC50) worked out at 299 nM.

Take `Cc1cc2c(cn1)cc(-c1cc(Nc3noc(C4CCC(O)C4)n3)ccc1C)c(=O)n2C` (stereo not drawn) [Compound A73, 3-(5-(5-(3-hydroxycyclopentyl)-1,2,4-oxadiazol-3-ylamino)-2-methylphenyl)-1,7-dimethyl-1,6-naphthyridin-2(1H)-one]: the IC50 was 178 nM.

Compound `Cc1cc2c(cn1)cc(-c1cc(Nc3noc(C(C)(C)O)n3)ccc1C)c(=O)n2C` [Compound A32, 3-(5-(5-(2-hydroxypropan-2-yl)-1,2,4-oxadiazol-3-ylamino)-2-methylphenyl)-1,7-dimethyl-1,6-naphthyridin-2(1H)-one] yielded an IC50 of 172 nM.

`Cc1cc2c(cn1)cc(-c1cc(Nc3nnc(C4CCC4)[nH]3)ccc1C)c(=O)n2C` [Compound C8, 3-{5-[(5-cyclobutyl-4H-1,2,4-triazol-3-yl)amino]-2-methylphenyl}-1,7-dimethyl-1,2-dihydro-1,6-naphthyridin-2-one]: inhibition was half-maximal at 435 nM (IC50).

On to `Cc1cc2c(cn1)cc(-c1cc(Nc3noc(C4CCOCC4)n3)ccc1C)c(=O)n2C` [Compound A33, 1,7-dimethyl-3-(2-methyl-5-{[5-(oxan-4-yl)-1,2,4-oxadiazol-3-yl]amino}phenyl)-1,2-dihydro-1,6-naphthyridin-2-one], for which the IC50 came out at 444 nM.

`Cc1cc2c(cn1)cc(-c1cc(Nc3noc(-c4ccncc4)n3)ccc1C)c(=O)n2C` [Compound A50, 1,7-dimethyl-3-(2-methyl-5-{[5-(pyridin-4-yl)-1,2,4-oxadiazol-3-yl]amino}phenyl)-1,2-dihydro-1,6-naphthyridin-2-one] returned a concentration for half-maximal inhibition (IC50) of 271 nM.

For `Cc1cc2c(cn1)cc(-c1cc(Nc3noc(CC(C)O)n3)ccc1C)c(=O)n2C` (stereo not drawn) [Compound A55, 3-(5-{[5-(2-hydroxypropyl)-1,2,4-oxadiazol-3-yl]amino}-2-methylphenyl)-1,7-dimethyl-1,2-dihydro-1,6-naphthyridin-2-one], the IC50 worked out at 294 nM.

As to `Cc1cc2c(cn1)cc(-c1cc(Nc3noc(C4CC(=O)C4)n3)ccc1C)c(=O)n2C` [Compound A72, 1,7-dimethyl-3-(2-methyl-5-{[5-(3-oxocyclobutyl)-1,2,4-oxadiazol-3-yl]amino}phenyl)-1,2-dihydro-1,6-naphthyridin-2-one], half-maximal inhibition (IC50) required 204 nM.

`Cc1ccc(-c2nc(Nc3ccc(C)c(-c4cc5cnc(C)cc5n(C)c4=O)c3)no2)nc1` [Compound A102, 1,7-dimethyl-3-(2-methyl-5-{[5-(5-methylpyridin-2-yl)-1,2,4-oxadiazol-3-yl]amino}phenyl)-1,2-dihydro-1,6-naphthyridin-2-one] gave a concentration for half-maximal inhibition (IC50) of 113 nM.

`Cc1cc2c(cn1)cc(-c1cc(Nc3noc(-c4ccc(F)cc4)n3)ccc1C)c(=O)n2C` [Compound A24, 3-(5-{[5-(4-fluorophenyl)-1,2,4-oxadiazol-3-yl]amino}-2-methylphenyl)-1,7-dimethyl-1,2-dihydro-1,6-naphthyridin-2-one] displayed an IC50 of 36 nM.

With `Cc1cc2c(cn1)cc(-c1cc(Nc3cc(C4CCCO4)on3)ccc1C)c(=O)n2C` (stereo not drawn) [Compound D5], the IC50 is 197 nM.

As for `Cc1cc2c(cn1)cc(-c1cc(Nc3noc(-c4ccc(Cl)cc4)n3)ccc1C)c(=O)n2C` [Compound A12, 3-(5-{[5-(4-chlorophenyl)-1,2,4-oxadiazol-3-yl]amino}-2-methylphenyl)-1,7-dimethyl-1,2-dihydro-1,6-naphthyridin-2-one], the IC50 amounted to 13 nM. Compared with the last compound, the IC50 is about 15-fold lower.

In turn, `Cc1cc2c(cn1)cc(-c1cc(Nc3noc(-c4cccc(C#N)c4)n3)ccc1C)c(=O)n2C` [Compound A40, 3-(3-{[3-(1,7-dimethyl-2-oxo-1,2-dihydro-1,6-naphthyridin-3-yl)-4-methylphenyl]amino}-1,2,4-oxadiazol-5-yl)benzonitrile] had an IC50 of 299 nM.

On to `COc1ccc(-c2nc(Nc3ccc(C)c(-c4cc5cnc(C)cc5n(C)c4=O)c3)no2)nc1` [Compound A103, 3-(5-{[5-(5-methoxypyridin-2-yl)-1,2,4-oxadiazol-3-yl]amino}-2-methylphenyl)-1,7-dimethyl-1,2-dihydro-1,6-naphthyridin-2-one], for which inhibition was half-maximal at 82 nM (IC50). Against the preceding compound, the IC50 is about 3.6-fold lower.

Compound `Cc1cc2c(cn1)cc(-c1cc(Nc3noc(-c4ccc(OC(F)(F)F)cc4)n3)ccc1C)c(=O)n2C` [Compound A41, 1,7-dimethyl-3-[2-methyl-5-({5-[4-(trifluoromethoxy)phenyl]-1,2,4-oxadiazol-3-yl}amino)phenyl]-1,2-dihydro-1,6-naphthyridin-2-one] gave an IC50 of 53 nM.

`Cc1cc2c(cn1)cc(-c1cc(Nc3noc([C@@H]4CCCCO4)n3)ccc1C)c(=O)n2C` [Compound A100, 1,7-dimethyl-3-[2-methyl-5-({5-[(2S)-oxan-2-yl]-1,2,4-oxadiazol-3-yl}amino)phenyl]-1,2-dihydro-1,6-naphthyridin-2-one] registered an IC50 of 70 nM.

`Cc1cc2c(cn1)cc(-c1cc(Nc3noc(-c4cc(C)oc4C)n3)ccc1C)c(=O)n2C` [Compound A2, 3-(5-{[5-(2,5-dimethylfuran-3-yl)-1,2,4-oxadiazol-3-yl]amino}-2-methylphenyl)-1,7-dimethyl-1,2-dihydro-1,6-naphthyridin-2-one] gave an IC50 of 126 nM.

In turn, `Cc1cc2c(cn1)cc(-c1cc(Nc3noc(-c4ccc(Cl)nc4)n3)ccc1C)c(=O)n2C` [Compound A1, 3-(5-{[5-(6-chloropyridin-3-yl)-1,2,4-oxadiazol-3-yl]amino}-2-methylphenyl)-1,7-dimethyl-1,2-dihydro-1,6-naphthyridin-2-one] gave an IC50 of 100 nM.

The compound `Cc1cc2c(cn1)cc(-c1cc(Nc3noc(-c4c(F)cccc4F)n3)ccc1C)c(=O)n2C` [Compound A60, 3-(5-{[5-(2,6-difluorophenyl)-1,2,4-oxadiazol-3-yl]amino}-2-methylphenyl)-1,7-dimethyl-1,2-dihydro-1,6-naphthyridin-2-one] gave an IC50 of 82 nM.

Turning to `Cc1cc2c(cn1)cc(-c1cc(Nc3cc(C(C)C)on3)ccc1C)c(=O)n2C` [Compound D14], the concentration for half-maximal inhibition (IC50) amounted to 144 nM.
